Experimental data reported in patent publication US12496275B2, “Drug delivery methods and compositions” (Mayo Foundation for Medical Education and Research, priority 2019, dated 2025).
One block for each molecule: values may come before it.

Experiments:
[1] = Analysis of encapsulation efficiency and drug loading efficiency of liposomes; type: physicochemical
Experimental: Analysis of encapsulation efficiency and drug loading efficiency: Liposome-encapsulation efficiency was measured by determining the amount of entrapped drugs. Briefly, the drug-loaded liposome sample was centrifuged in an amicon ultra centrifugal filter with a cut off size of 3 kD in order to separate the unentrapped drug. Total (Tdrug) and unentrapped drug (UEdrug) amounts were determined by measuring the absorbance at λx of respective drugs and comparing with corresponding standard curves. The encapsulated drug (Edrug) amount was calculated by subtracting the amount of unentrapped drugs (UEdrug) from total drug (Tdrug) amount. The drug-encapsulation efficiency (EE %) was expressed as the percentage of the encapsulated amount (Edrug) to the total amount (Tdrug). Drug loading efficiency was expressed as the percentage of encapsulated drug (Edrug) to the total lipid amount (Tlipid).

[2] = stated, no test described; cited from earlier work
AsPC-1 tumors = assay: Validation study, GIPC-1 knockdown plus gemcitabine, 5 mice per group; type: in vivo; details: AsPC-1, 5 mice per group, gemcitabine 10 mg/kg
Experimental: (§1) This strategy is currently being used in ‘Avatar’ models for the development of personalized therapy for various diseases. These ‘Avatar’ models are developed by implanting patient tumor samples in mice for subsequent drug efficacy studies. […] We used the same strategy in our SMT. All procedures were performed according to the approved guidelines. For the pancreatic cancer orthotopic model, 6-8-week-old female SCID mice were obtained from in-house breeding. Approximately, 1×10^6 luciferase-labeled Tet-inducible GIPC-1 shRNA vector-transfected AsPC-1 or PANC-1 cells, resuspended in 100 μL of PBS were injected into the pancreas of each mouse. After three days of cell inoculation, GIPC-1 knockdown was induced by adding doxycycline (0.5 mg/mL) in drinking water for the remainder of the study. […] After completion of the experiment, all tumor-bearing mice were euthanized with CO2; tumors were harvested, and tumor volumes and weights were measured.

PANC-1 cells = assay: In vitro gemcitabine sensitivity after Tet-inducible GIPC shRNA knockdown; type: cell-based, human; details: PANC-1, 0.5 μM to 50 μM, 72 h
Experimental: (§2) Antibodies. Antibody for β-actin and horseradish peroxidase-conjugated secondary antibodies were purchased from Santa Cruz Biotechnology. Anti-GIPC antibody was purchased from Thermo Fisher, USA. shRNA Transfection. The plasmids for Tet-on-inducible GIPC1 shRNA were purchased from Dharmacon, US. Lentivirus stocks for GIPC1 shRNA were prepared and infected into the target cells following standard procedures. After infection, 2 μg/mL of puromycin was added to the medium for antibiotic selection. For the Tet-On-inducible GIPC shRNA, 0.4 μg/mL of doxycycline was used to induce shRNA expression in the stably infected cells.
(§3) In vitro cytotoxicity assay: Approximately, 5×10^3 cells were seeded in 384-well plates. After 18-24 h, cells were treated with increasing concentrations of gemcitabine and incubated for further 72 h. At the end of the incubation, cell viability was measured using CellTiter-Glo® 2.0 Assay (Promega) as per the manufacturer's protocol. Briefly, 24 μL of reagent was added to each well. The plate was incubated at RT for 10 minutes and luminescence signals were measured using Spectramax i3x. Percentage viability is calculated as follows: Viability (%)=100×(ATreated−ABlank)/(AUntreated−ABlank).

AsPC-1 cells = assay: as above; type: cell-based, human; details: AsPC-1, 0.5 μM to 50 μM, 72 h
Experimental: as §2, §3

[3] = test system: AsPC-1 orthotopic xenografts; assay: Single mouse trial, GIPC-1 knockdown plus gemcitabine; type: in vivo, mice; details: AsPC-1, single mouse, gemcitabine 10 mg/kg
Source text: as §1, with “In vivo tumor growth inhibition experiment: A single mouse trial (SMT) was used to assess the in vivo tumor inhibition study in combination with GIPC-1 knockdown plus gemcitabine treatment. This” for “This”

[4] = test system: PANC-1 orthotopic xenografts; assay: as above; type: in vivo, mice; details: PANC-1, single mouse, gemcitabine 10 mg/kg
Source text: as §1, with “In vivo tumor growth inhibition experiment: A single mouse trial (SMT) was used to assess the in vivo tumor inhibition study in combination with GIPC-1 knockdown plus gemcitabine treatment. This” for “This”

% of Total drug loading w.r.t Total lipid ([1]; EG00229): 2.2%
Encapsulation efficiencies (%) ([1]; EG00229): 30%
SMILES: NC(N)=NCCC[C@H](NC(=O)c1sccc1NS(=O)(=O)c1cccc2nsnc12)C(=O)O [EG00229]

% of Total drug loading w.r.t Total lipid ([1]; everolimus): 7.29%
Encapsulation efficiencies (%) ([1]; everolimus): ~100%
SMILES: CO[C@H]1C[C@@H]2CC[C@@H](C)[C@@](O)(O2)C(=O)C(=O)N2CCCC[C@H]2C(=O)O[C@H]([C@H](C)C[C@@H]2CC[C@@H](OCCO)[C@H](OC)C2)CC(=O)[C@H](C)/C=C(\C)[C@@H](O)[C@@H](OC)C(=O)[C@H](C)C[C@H](C)/C=C/C=C/C=C/1C [everolimus]
water solubility [2]: water insoluble

% of Total drug loading w.r.t Total lipid ([1]; vinorelbine): 3.5%
Encapsulation efficiencies (%) ([1]; vinorelbine): 23.7%
SMILES: CCC1=C[C@@H]2CN(C1)Cc1c([nH]c3ccccc13)[C@@](C(=O)OC)(c1cc3c(cc1OC)N(C)[C@H]1[C@@](O)(C(=O)OC)[C@H](OC(C)=O)[C@]4(CC)C=CCN5CC[C@]31[C@@H]54)C2 [vinorelbine]
water solubility [2]: highly water soluble

The remaining lines, values behind:

SMILES: Nc1ccn([C@@H]2O[C@H](CO)[C@@H](O)C2(F)F)c(=O)n1 [gemcitabine]
response of GIPC-depleted tumors to gemcitabine (tumor volume, weight) (AsPC-1 tumors): increasing gemcitabine efficacy
response of GIPC-depleted tumors to gemcitabine (tumor volume, weight) (AsPC-1 tumors; listed as Gemcitabine): more or less similar results
growth inhibition by gemcitabine in GIPC-depleted vs control cells (PANC-1 cells): steeper growth inhibition curve
growth inhibition by gemcitabine in GIPC-depleted vs control cells (PANC-1 cells; listed as Gemcitabine): sensitizes
growth inhibition by gemcitabine in GIPC-depleted vs control cells (AsPC-1 cells): steeper growth inhibition curve
growth inhibition by gemcitabine in GIPC-depleted vs control cells (AsPC-1 cells; listed as Gemcitabine): sensitizes
response of GIPC-depleted tumors to gemcitabine (tumor volume, weight) [3]: increasing gemcitabine efficacy
response of GIPC-depleted tumors to gemcitabine (tumor volume, weight) ([3]; listed as Gemcitabine): significantly higher response
response of GIPC-depleted tumors to gemcitabine (tumor volume, weight) [4]: increasing gemcitabine efficacy
response of GIPC-depleted tumors to gemcitabine (tumor volume, weight) ([4]; listed as Gemcitabine): significantly higher response

SMILES: CCc1c2c(nc3ccc(OC(=O)N4CCC(N5CCCCC5)CC4)cc13)-c1cc3c(c(=O)n1C2)COC(=O)[C@]3(O)CC [IRT, irinotecan]
water solubility [2]: poorly water-soluble
